Earlier results on two compounds are cited in patent US20060100214A1, “Fast dissolving and taste masked oral dosage form comprising sildenafil” (priority 2002, published 2006).

Each structure is given as a SMILES string.

As for `CCCc1nn(C)c2c(=O)[nH]c(-c3cc(S(=O)(=O)N4CCN(C)CC4)ccc3OCC)nc12` [sildenafil free base, 1-[[3-(6,7-dihydro-1-methyl-7-oxo-3-propyl-1H-pyrazolo[4,3-d]pyrimidin-5-yl)-4-ethoxyphenyl]sulfonyl]-4-methylpiperazine], the water solubility result (as said in US 20020002172A1) is reported as “very low water solubility”.
Regarding `CCCc1nn(C)c2c(=O)[nH]c(-c3cc(S(=O)(=O)N4CCN(C)CC4)ccc3OCC)nc12.O=C(O)CC(O)(CC(=O)O)C(=O)O` [Sildenafil citrate, 1-[[3-(6,7-dihydro-1-methyl-7-oxo-3-propyl-1H-pyrazolo[4,3-d]pyrimidin-5-yl)-4-ethoxyphenyl]sulfonyl]-4-methylpiperazine citrate], where the note is “at pH2.0”, the maximal solubility entry was “approximately 24 mg/ml”.
